Experimental findings from paper PMC6155239, “Targeting PFKFB3 radiosensitizes cancer cells and suppresses homologous recombination” (Nature Communications, 2018) are described below.

One data set addresses PFKFB3 (Homo sapiens, UniProt Q16875). The experiment in a line: Isothermal titration calorimetry. Type of data set: binding. The conditions noted are these: 25 °C. The protocol:
ITC was performed for the titration of 200 μM KAN0438241 into 20 μM PFKFB3 protein. Raw ITC data was recorded for 12 × 3 μl injections (preceded by 0.4 μl injection). Data was collected with PEAQ-ITC system (MicroCal™, Malvern Instruments) at 25 °C, 10 μcal/s Reference Power, High Feedback, and 750 rpm stirring rate. A constant value of the heat of dilution was fitted along with the binding parameters. Data analysis performed with dedicated PEAQ-ITC analysis software (MicroCal, Malvern Instruments).
(ITC needs no label: the signal is the heat of the interaction.)

A further data set concerns the target T1, CDK2 (Homo sapiens, UniProt P24941).
T1 construct: purchased DiscoverX (Eurofins) KINOMEscan / scanEDGE, inferred from the naming style
The experiment in a line: KINOMEscan. Type of data set: binding. The conditions noted are these: 2000 nM; read-out: Percent Control.

A further data set concerns the target T2, AXL (Homo sapiens, UniProt P30530).
T2 construct: purchased DiscoverX (Eurofins) KINOMEscan / scanEDGE, inferred from the naming style
Put plainly: KINOMEscan. The conditions noted are these: 2000 nM; read-out: Percent Control. Type of data set: binding.

For a further data set, the target named is T3, EPHA2 (Homo sapiens, UniProt P29317).
T3 construct: purchased DiscoverX (Eurofins) KINOMEscan / scanEDGE, inferred from the naming style
T3 sequence (P29317 24-976): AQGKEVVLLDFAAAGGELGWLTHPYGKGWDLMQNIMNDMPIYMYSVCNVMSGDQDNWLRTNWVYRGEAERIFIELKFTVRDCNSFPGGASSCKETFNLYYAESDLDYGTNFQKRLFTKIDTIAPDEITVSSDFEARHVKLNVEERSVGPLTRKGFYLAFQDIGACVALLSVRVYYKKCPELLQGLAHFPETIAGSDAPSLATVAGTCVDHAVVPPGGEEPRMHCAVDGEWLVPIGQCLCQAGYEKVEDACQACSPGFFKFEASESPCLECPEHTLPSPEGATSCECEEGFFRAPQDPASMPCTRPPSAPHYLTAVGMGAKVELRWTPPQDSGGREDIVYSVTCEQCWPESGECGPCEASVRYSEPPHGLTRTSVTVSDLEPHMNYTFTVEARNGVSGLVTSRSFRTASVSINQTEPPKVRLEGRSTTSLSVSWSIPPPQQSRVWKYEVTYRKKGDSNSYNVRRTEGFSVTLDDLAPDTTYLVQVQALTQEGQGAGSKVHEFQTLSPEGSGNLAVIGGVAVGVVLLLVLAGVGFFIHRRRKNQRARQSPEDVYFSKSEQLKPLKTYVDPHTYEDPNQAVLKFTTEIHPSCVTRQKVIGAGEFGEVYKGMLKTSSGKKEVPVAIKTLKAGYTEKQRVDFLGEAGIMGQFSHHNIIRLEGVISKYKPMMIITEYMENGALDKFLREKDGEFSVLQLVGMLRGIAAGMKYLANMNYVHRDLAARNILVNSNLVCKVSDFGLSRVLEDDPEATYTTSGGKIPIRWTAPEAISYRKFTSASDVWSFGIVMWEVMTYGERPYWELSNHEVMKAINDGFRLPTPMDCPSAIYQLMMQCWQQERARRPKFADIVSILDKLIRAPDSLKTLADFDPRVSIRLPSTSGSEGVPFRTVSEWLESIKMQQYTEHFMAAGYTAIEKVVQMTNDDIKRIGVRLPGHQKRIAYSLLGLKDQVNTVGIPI
Put plainly: KINOMEscan. Format: binding. The conditions noted are these: 2000 nM; read-out: Percent Control.

A further data set concerns the target T4, ERBB2 (Homo sapiens, UniProt P04626).
T4 construct: purchased DiscoverX (Eurofins) KINOMEscan / scanEDGE, inferred from the naming style
Put plainly: KINOMEscan. Format: binding. The conditions noted are these: 2000 nM; read-out: Percent Control.

A further data set deals with T5, AURKA (Homo sapiens, UniProt O14965).
T5 construct: purchased DiscoverX (Eurofins) KINOMEscan / scanEDGE, inferred from the naming style
The experiment in a line: KINOMEscan. Type of data set: binding. The conditions noted are these: 2000 nM; read-out: Percent Control.

The target of the next data set is T6, DYRK1B (Homo sapiens, UniProt Q9Y463).
T6 construct: purchased DiscoverX (Eurofins) KINOMEscan / scanEDGE, inferred from the naming style
T6 sequence (Q9Y463 whole entry): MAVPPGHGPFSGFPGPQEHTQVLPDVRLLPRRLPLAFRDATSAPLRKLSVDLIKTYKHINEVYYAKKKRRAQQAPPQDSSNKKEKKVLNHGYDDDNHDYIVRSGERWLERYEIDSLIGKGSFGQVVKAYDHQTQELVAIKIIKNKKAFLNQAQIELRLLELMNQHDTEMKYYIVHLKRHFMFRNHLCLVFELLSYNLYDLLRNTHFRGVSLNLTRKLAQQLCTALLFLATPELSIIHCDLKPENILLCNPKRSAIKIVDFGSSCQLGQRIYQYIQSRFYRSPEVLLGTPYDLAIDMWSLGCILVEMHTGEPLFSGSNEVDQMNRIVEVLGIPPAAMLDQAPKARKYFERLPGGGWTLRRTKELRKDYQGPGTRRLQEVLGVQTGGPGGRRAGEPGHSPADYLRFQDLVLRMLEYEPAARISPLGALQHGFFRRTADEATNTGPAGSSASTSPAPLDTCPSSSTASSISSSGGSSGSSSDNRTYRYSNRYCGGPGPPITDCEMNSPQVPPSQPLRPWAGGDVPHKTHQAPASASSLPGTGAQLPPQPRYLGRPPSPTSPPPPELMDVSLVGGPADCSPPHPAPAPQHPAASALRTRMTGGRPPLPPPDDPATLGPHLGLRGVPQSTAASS
The experiment in a line: KINOMEscan. Type of data set: binding. The conditions noted are these: 2000 nM; read-out: Percent Control.

The next data set addresses T7, ADCK3 (Homo sapiens, UniProt Q8NI60).
T7 construct: purchased DiscoverX (Eurofins) KINOMEscan / scanEDGE, inferred from the naming style
Put plainly: KINOMEscan. Format: binding. The conditions noted are these: 2000 nM; read-out: Percent Control.

The target of another data set is T8, CDK7 (Homo sapiens, UniProt P50613).
T8 construct: purchased DiscoverX (Eurofins) KINOMEscan / scanEDGE, inferred from the naming style
T8 sequence (P50613 whole entry): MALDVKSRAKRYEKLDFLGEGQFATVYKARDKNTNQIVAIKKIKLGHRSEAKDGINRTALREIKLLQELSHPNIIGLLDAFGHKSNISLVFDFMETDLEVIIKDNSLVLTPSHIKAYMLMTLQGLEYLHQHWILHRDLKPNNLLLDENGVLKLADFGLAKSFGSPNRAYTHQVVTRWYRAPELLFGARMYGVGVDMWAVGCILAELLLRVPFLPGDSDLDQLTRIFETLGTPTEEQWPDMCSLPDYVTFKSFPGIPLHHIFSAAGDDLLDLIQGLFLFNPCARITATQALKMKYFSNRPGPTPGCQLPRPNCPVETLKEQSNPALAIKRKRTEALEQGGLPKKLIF
Put plainly: KINOMEscan. Format: binding. The conditions noted are these: 2000 nM; read-out: Percent Control.

In another data set the target is T9, BRAF(V600E) (Homo sapiens, UniProt P15056, V600E).
T9 construct: purchased DiscoverX (Eurofins) KINOMEscan / scanEDGE, inferred from the naming style
The experiment in a line: KINOMEscan. Type of data set: binding. The conditions noted are these: 2000 nM; read-out: Percent Control.

Another data set addresses T10, ABL1-nonphosphorylated (Homo sapiens, UniProt P00519).
T10 construct: purchased DiscoverX (Eurofins) KINOMEscan / scanEDGE, inferred from the naming style
Put plainly: KINOMEscan. The conditions noted are these: 2000 nM; read-out: Percent Control. Type of data set: binding.

For another data set, the target named is T11, FAK (Homo sapiens, UniProt Q05397).
T11 construct: purchased DiscoverX (Eurofins) KINOMEscan / scanEDGE, inferred from the naming style
T11 sequence (Q05397 whole entry): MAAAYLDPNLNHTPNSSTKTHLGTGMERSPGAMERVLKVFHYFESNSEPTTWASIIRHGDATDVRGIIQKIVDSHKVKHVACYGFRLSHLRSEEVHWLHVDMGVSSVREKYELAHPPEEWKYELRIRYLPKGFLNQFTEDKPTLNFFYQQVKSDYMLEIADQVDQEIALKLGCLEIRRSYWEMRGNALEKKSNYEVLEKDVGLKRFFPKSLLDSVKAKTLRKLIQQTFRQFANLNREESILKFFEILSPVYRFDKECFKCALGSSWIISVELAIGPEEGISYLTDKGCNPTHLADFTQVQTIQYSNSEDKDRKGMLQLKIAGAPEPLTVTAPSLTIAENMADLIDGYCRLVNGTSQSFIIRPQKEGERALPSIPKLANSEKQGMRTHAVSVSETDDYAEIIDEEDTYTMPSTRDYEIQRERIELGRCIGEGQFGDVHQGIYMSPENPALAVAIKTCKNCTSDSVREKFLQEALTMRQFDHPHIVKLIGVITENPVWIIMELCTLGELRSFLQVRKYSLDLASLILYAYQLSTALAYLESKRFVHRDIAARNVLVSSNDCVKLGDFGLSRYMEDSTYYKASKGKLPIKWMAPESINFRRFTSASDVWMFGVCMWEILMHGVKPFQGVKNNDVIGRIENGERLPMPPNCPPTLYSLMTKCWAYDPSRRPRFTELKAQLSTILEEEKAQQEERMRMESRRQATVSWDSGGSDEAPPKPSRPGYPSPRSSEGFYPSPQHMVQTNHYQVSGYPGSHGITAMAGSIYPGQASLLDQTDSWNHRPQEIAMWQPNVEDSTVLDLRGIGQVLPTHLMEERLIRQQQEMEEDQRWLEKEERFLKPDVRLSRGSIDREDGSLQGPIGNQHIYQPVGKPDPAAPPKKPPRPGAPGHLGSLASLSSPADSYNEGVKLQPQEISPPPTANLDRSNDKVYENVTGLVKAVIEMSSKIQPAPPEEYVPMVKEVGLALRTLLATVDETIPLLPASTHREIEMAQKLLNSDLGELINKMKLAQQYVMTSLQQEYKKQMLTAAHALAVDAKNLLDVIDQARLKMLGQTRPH
Put plainly: KINOMEscan. Type of data set: binding. The conditions noted are these: 2000 nM; read-out: Percent Control.

The target of a further data set is T12, CDK11 (Homo sapiens, UniProt Q9BWU1).
T12 construct: purchased DiscoverX (Eurofins) KINOMEscan / scanEDGE, inferred from the naming style
Put plainly: KINOMEscan. Type of data set: binding. The conditions noted are these: 2000 nM; read-out: Percent Control.

Data set [1] deals with peripheral blood mononuclear cells (PBMCs). The experiment in a line: Viability of PBMCs. Format: cell-based.
The subject of data set [2] is U2OS cells. The experiment in a line: IR-induced PFKFB3/RRM2 foci co-localization. Type of data set: cell-based. The conditions noted are these: pre-treatment prior to IR 6 Gy. On the procedure:
(§1) Cells were grown on sterilized coverslips and fixed with 4% paraformaldehyde (PFA) (Santa Cruz) and 2% sucrose (Sigma Aldrich) for 15 min at room temperature. They were then permeabilized with 0.2% NP-40 (Thermo Scientific) for 10 min at room temperature followed by 30 min of blocking in blocking buffer (2 or 3% BSA, 5% glycerol, 0.1% Tween 20 (Sigma Aldrich)). Coverslips were subsequently incubated for 1, 2, or 24 h in primary antibody and 40 min in secondary antibody diluted in blocking buffer, DNA was stained with DAPI for 10 min. The coverslips were mounted with Prolonged Gold mounting medium (Invitrogen). Images were acquired with a Zeiss LSM 780 microscope using a 40× or 63× oil immersion lens and processed in ImageJ and CellProfiler.
To visualize PFKFB3, RPA32, RAD51, BRCA1, 53BP1, and RRM2 IRIF, the cells were first washed with PBS and then incubated for 5 min at room temperature with cytoskeleton (CSK) buffer containing 10 mM PIPES pH 7.0 (Sigma Aldrich), 100 mM NaCl (EMD Millipore), 300 mM sucrose (Sigma Aldrich), 3 mM MgCl2 (Sigma Aldrich), and 0.7% Triton X-100 (Sigma Aldrich). After these treatments, the cells were washed once again with PBS and then fixed in 4% PFA with 2% sucrose.

Another data set deals with BJ RAS cells. The experiment in a line: Clonogenic survival, BJ RAS. Format: cell-based. The conditions noted are these: with and without IR (2 Gy). On the procedure:
U2OS cells were transfected with indicated siRNAs and 24 h later exposed to IR (2 Gy) or left untreated and allowed to recover for 4 h. One-hundred U2OS cells were then seeded into 6-well plates and after 10 days colonies were fixed and stained with 4% methylene blue (Sigma Aldrich) in methanol. BJ TERT (500 cells), BJ RAS (200 cells), or U2OS (200 cells) were seeded into 6-well plates 24 h prior to treatment with inhibitors as indicated or vehicle for 24 h and then subjected to IR (2 Gy). The inhibitors were washed out 72 h later and colonies were fixed 4 days (BJ RAS) or 7 days (BJ TERT) later with 4% methylene blue in methanol.

Data set [3] deals with U2OS cells. Put plainly: DDR signaling, western blot / RPA32 intensity. Format: cell-based. On the procedure: Cells were lysed on ice using the NP-40 lysis buffer (50 mM Tris–HCl pH 8.0, 150 mM NaCl, 1% NP-40) supplemented with protease and phosphatase inhibitors (Roche). Protein lysates were quantified using the Pierce BCA Protein Assay Kit (ThermoFisher Scientific), equal amounts of protein were heated to 70 °C in NuPAGE LDS Sample Buffer (ThermoFisher Scientific) and loaded on Mini-PROTEAN® precast gels (Bio-Rad) and run at 120 V. Transfer to nitrocellulose membrane (Bio-Rad) was done using Trans-Blot Turbo Transfer System (Bio-Rad). Membranes were blocked for 1 h at RT in blocking buffer (5% BSA, 0.1% Tween-20 in PBS, or 1:1 Li-Cor Blocking Buffer/TBS + 0.05% Tween-20 (TBS-T)), incubated with primary antibodies overnight at 4 °C and then incubated 1 h at RT with secondary antibodies diluted at 1:10,000 in 1:1 Li-Cor blocking buffer/TBS-T. Bands were visualized with an Odyssey Fc Imager and analyzed with ImageJ or with Image Studio Software (Li-Cor Biosciences). Uncropped western blots are shown in Supplementary Figure 10, 11, 12, 13, 14, 15, 16.

The subject of data set [4] is U2OS cells. Put plainly: IR-induced Mre11 / Nbs1 foci formation. Type of data set: cell-based. The conditions noted are these: treatment prior to IR (6 Gy, 2 h recovery). On the procedure:
as §1

Each structure is given as a SMILES string.

T2 sequence (P30530 26-894): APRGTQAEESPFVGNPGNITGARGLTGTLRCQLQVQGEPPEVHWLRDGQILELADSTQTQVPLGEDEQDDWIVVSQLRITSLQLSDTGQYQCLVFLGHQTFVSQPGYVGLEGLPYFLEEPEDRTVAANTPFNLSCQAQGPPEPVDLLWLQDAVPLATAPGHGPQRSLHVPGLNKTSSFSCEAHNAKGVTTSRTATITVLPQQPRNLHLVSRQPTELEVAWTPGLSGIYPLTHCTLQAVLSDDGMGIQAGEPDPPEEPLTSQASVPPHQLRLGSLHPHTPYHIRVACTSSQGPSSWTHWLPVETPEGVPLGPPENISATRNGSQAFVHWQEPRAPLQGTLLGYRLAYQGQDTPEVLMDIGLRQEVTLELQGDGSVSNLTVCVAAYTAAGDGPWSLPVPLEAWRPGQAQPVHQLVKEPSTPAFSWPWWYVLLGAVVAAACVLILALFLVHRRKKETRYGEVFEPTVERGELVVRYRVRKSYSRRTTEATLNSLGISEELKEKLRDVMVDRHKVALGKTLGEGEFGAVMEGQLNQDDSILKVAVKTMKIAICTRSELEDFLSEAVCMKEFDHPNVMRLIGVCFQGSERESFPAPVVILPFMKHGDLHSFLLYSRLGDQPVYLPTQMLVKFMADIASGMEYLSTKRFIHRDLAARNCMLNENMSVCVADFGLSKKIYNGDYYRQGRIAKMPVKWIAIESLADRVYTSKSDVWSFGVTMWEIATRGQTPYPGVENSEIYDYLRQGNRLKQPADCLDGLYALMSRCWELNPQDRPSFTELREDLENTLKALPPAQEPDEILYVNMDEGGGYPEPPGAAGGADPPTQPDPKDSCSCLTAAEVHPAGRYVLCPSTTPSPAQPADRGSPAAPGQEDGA
T4 sequence (P04626 23-1255): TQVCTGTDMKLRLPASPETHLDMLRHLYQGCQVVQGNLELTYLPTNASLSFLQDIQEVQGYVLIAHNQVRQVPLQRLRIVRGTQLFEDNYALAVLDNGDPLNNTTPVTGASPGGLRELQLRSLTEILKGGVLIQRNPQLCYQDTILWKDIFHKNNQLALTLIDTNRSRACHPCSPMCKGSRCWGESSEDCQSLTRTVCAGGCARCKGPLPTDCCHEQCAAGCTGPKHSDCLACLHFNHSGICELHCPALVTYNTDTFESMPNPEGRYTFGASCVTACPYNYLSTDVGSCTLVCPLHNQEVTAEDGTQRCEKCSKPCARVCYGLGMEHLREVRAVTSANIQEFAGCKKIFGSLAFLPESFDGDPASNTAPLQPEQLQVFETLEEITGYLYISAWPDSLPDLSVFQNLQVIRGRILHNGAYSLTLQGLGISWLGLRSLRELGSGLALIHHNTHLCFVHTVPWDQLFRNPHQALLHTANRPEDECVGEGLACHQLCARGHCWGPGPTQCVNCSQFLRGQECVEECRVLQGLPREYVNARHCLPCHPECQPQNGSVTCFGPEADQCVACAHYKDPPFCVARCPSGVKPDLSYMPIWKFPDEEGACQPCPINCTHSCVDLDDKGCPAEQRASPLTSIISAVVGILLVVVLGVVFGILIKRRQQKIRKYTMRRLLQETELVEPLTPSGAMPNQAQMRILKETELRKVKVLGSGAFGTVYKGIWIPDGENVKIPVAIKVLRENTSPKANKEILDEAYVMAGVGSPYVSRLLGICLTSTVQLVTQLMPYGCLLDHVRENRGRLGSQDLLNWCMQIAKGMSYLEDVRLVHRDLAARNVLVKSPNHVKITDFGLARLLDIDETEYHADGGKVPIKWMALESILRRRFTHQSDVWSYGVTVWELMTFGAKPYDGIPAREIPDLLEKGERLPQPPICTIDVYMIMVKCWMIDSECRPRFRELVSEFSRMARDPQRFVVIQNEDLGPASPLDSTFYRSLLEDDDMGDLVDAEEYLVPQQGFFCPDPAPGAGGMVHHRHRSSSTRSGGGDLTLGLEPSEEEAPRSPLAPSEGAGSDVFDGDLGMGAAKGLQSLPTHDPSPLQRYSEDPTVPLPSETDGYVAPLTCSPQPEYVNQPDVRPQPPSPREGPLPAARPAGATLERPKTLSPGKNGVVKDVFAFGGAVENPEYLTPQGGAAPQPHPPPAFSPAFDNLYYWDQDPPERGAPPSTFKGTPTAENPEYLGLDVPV

In the case of `O=C(O)c1ccc(NS(=O)(=O)c2cccc(-c3cc(F)ccc3O)c2)cc1O` [KAN0438241, 4-{[(5′-Fluoro-2′-hydroxybiphenyl-3-yl)sulfonyl]amino}-2-hydroxybenzoic acid], the “potency for PFKFB3 by isothermal titration calorimetry (in words)” value on PFKFB3 is “sub-µM potency”. For the same compound, the remaining binding at 2 µM came to 100% on CDK2; 100% at AXL; 100% on EPHA2; 92% at ERBB2; 97% at AURKA; 86% on DYRK1B. Moreover, the remaining binding at 2 µM on ADCK3 came to 100%; at CDK7 it was 93%; at BRAF(V600E), 97%; on ABL1-nonphosphorylated it was 100%; at FAK it was 96%; on CDK11, 96%.

Turning to `O=C(OCCO)c1ccc(NS(=O)(=O)c2cccc(-c3cc(F)ccc3O)c2)cc1O` [KAN0438757, 2-Hydroxyethyl-4-{[(5′-fluoro-2′-hydroxybiphenyl-3-yl)sulfonyl]amino}-2-hydroxybenzoate], in data set [1], the “effect on viability of PBMCs” value is on record as “not affected”. In addition, the “IR-induced co-localization of PFKFB3 and RRM2 (in words)” value in the data set on U2OS cells [2] is on record as “disrupted”. In addition, the “clonogenic survival of BJ RAS (in words)” value in the data set with BJ RAS cells is reported as “decreased clonogenic survival”. In addition, in the data set on U2OS cells [3] (10 μM 24 h), the “IR-induced phosphorylation of ATM, H2AX, or KAP-1 (in words)” value is reported as “did not affect”. In addition, the “induction of RPA-coated ssDNA, p53, phosphorylation of ATR, ATM, Chk1, H2AX (in words)” value with U2OS cells [3] (no IR) is “did not induce”. Further, in the data set on U2OS cells [4], the “IR-induced Mre11 or Nbs1 foci formation (in words)” value is listed as “did not affect”.
